Experimental data reported in patent publication US12595230B2, “Substituted 6,7-dihydro-5H-benzo[7]annulene compounds and their derivatives, processes for their preparation and therapeutic uses thereof” (Sanofi, priority 2020, dated 2026).

Molecular target: T1, ERα (Homo sapiens, UniProt P03372)
T1 construct: host or cells: MCF7
T1 sequence (P03372 1-595): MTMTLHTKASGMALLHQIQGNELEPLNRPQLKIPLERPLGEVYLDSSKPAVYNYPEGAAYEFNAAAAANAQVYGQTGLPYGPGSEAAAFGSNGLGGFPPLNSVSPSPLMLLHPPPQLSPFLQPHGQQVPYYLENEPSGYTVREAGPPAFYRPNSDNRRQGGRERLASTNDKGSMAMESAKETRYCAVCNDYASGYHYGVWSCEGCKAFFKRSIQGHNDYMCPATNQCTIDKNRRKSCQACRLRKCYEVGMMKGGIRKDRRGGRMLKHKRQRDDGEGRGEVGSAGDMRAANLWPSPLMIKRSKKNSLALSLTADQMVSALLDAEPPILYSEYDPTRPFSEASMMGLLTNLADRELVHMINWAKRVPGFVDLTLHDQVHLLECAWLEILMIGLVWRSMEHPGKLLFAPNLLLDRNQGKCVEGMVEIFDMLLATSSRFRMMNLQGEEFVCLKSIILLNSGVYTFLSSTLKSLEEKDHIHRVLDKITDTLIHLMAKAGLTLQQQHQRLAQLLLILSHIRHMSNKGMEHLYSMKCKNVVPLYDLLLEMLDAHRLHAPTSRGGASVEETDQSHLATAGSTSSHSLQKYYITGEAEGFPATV
Assay: Estrogen receptor degradation activity: breast cancer cell ERα in cell western assay (MCF7 cells)
Assay type: cell-based
Settings: for % Degradation At 0.3 μM: 4 hours, relative to fulvestrant 0.1 μM positive control; for DC50: read-out: Degradation IC50
Protocol: Test: Estrogen Receptor Degradation Activity Said test involves measuring the in vitro degradation activity of the compounds of the Table 1a. The measurements of the degradation activities were made using a breast cancer cell ERα in cell western assay as described hereunder. MCF7 cells (ATCC) were seeded in 384 wells microplate (collagen coated) at a concentration of 10000 cells/30 μL per well in red phenol free MEM alpha medium (invitrogen) containing 5% charcoal dextran striped FBS. The following day, 9 points serial 1:5 dilution of each compound was added to the cells in 2.5p L at final concentrations ranging from 0.3-0.0000018 μM (in table 2), or 0.1 μM for fulvestrant (using as positive control). At 4 hours post compound addition the cells were fixed by adding 25 μL of formalin (final concentration 5% formalin containing 0.1% triton) for 10 minutes at room temperature and then washed twice with PBS. Then, 50 μL of LI-COR blocking buffer containing 0.1% Triton was added to plate for 30 minutes at room temperature. LI-COR blocking buffer was removed and cells were incubated overnight at cold room with 50 μL anti-ER rabbit monoclonal antibody (Thermo scientific MA1-39540) diluted at 1:1000 in LI-COR blocking buffer containing 0.1% tween-20. Wells which were treated with blocking buffer but no antibody were used as background control. Wells were washed twice with PBS (0.1% tween-20) and incubated at 37° C. for 60 minutes in LI-COR (0.1% tween-20) containing goat anti-rabbit antibody Alexa 488 (1:1000) and Syto-64 a DNA dye (2 μM final concentration). Cells were then washed 3 times in PBS and scanned in ACUMEN explorer (TTP-Labtech). Integrated intensities in the green fluorescence and red fluorescence were measured to determine the levels of ERα and DNA respectively. The degradation activity with respect to estrogen receptors in this test is given by the concentration which degrades 50% of the estrogen receptor (or IC50) in nM. […] DMSO−fulvestrant)).

[1] = 4 hours post compound addition, concentration which degrades 50% of the estrogen receptor

| Structure (SMILES) | % Degradation At 0.3 μM | DC50 [1] | IC50 [1] |
| --- | --- | --- | --- |
| CC1CCc2cc(C(=O)O)ccc2C(c2ccc(CC3CN(CCCF)C3)cc2)=C1c1ccc(F)cc1 (racemic) [Example 325, 8-(4-fluorophenyl)-9-(4-((1-(3-fluoropropyl)azetidin-3-yl)methyl)phenyl)-7-methyl-6,7-dihydro-5H-benzo[7]annulene-3-carboxylic acid] | 89% | 0.5 nM |  |
| O=C(O)c1ccc2c(c1)CCCC(c1cc(CC(F)(F)F)ccc1F)=C2c1ccc(CC2CN(CCCF)C2)cc1 [Example 295, 8-(2-fluoro-5-(2,2,2-trifluoroethyl)phenyl)-9-(4-((1-(3-fluoropropyl)azetidin-3-yl)methyl)phenyl)-6,7-dihydro-5H-benzo[7]annulene-3-carboxylic acid] | 86% | 0.7 nM |  |
| Cc1cc(CC2CN(CCCF)C2)ccc1C1=C(c2ccc(Cl)cc2Cl)CCCc2cc(C(=O)O)ccc21 [Example 240, 8-(2,4-dichlorophenyl)-9-(4-((1-(3-fluoropropyl)azetidin-3-yl)methyl)-2-methylphenyl)-6,7-dihydro-5H-benzo[7]annulene-3-carboxylic acid] | 85% | 0.5 nM |  |
| Cc1cccc(C2=C(c3ccc(CC4CN(CCCF)C4)cc3)c3ccc(C(=O)O)cc3CCC2)c1C(F)(F)F.Cl [Example 313, 9-(4-((1-(3-fluoropropyl)azetidin-3-yl)methyl)phenyl)-8-(3-methyl-2-(trifluoromethyl)phenyl)-6,7-dihydro-5H-benzo[7]annulene-3-carboxylic acid hydrochloride] | 90% | 0.3 nM |  |
| Cc1cccc(C2=C(c3ccc(CC4CN(CCCF)C4)cc3)c3ccc(C(=O)O)cc3CCC2)c1Cl [Example 30, 8-(2-chloro-3-methylphenyl)-9-(4-((1-(3-fluoropropyl)azetidin-3-yl)methyl)phenyl)-6,7-dihydro-5H-benzo[7]annulene-3-carboxylic acid] | 94% | 0.4 nM |  |
| Cc1cc(Cl)ccc1C1=C(c2ccc(CC3CN(CCCF)C3)cc2)c2ccc(C(=O)O)cc2CCC1 [Example 25, 8-(4-chloro-2-methylphenyl)-9-(4-((1-(3-fluoropropyl)azetidin-3-yl)methyl)phenyl)-6,7-dihydro-5H-benzo[7]annulene-3-carboxylic acid] | 91% | 0.3 nM |  |
| O=C(O)c1ccc2c(c1)CCCC(c1ccc(Cl)cc1Cl)=C2c1ccc(CC2CN(CCCF)C2)cn1 [Example 253, 8-(2,4-dichlorophenyl)-9-(5-((1-(3-fluoropropyl)azetidin-3-yl)methyl)pyridin-2-yl)-6,7-dihydro-5H-benzo[7]annulene-3-carboxylic Acid] | 89% | 4 nM |  |
| CCC(CC)CC1=C(c2ccc(CC3CN(CCCF)C3)cc2)c2ccc(C(=O)O)cc2CCC1 [Example 231, 8-(2-Ethylbutyl)-9-(4-((1-(3-fluoropropyl)azetidin-3-yl)methyl)phenyl)-6,7-dihydro-5H-benzo[7]annulene-3-carboxylic Acid] | 83% | 0.3 nM |  |
| Cl.O=C(O)c1ccc2c(c1)CCCC(c1c(F)cc(F)cc1C(F)F)=C2c1ccc(CC2CN(CCCF)C2)cc1 [Example 284, 8-(2-(difluoromethyl)-4,6-difluorophenyl)-9-(4-((1-(3-fluoropropyl)azetidin-3-yl)methyl)phenyl)-6,7-dihydro-5H-benzo[7]annulene-3-carboxylic acid hydrochloride] | 96% | 0.3 nM |  |
| Cl.O=C(O)c1ccc2c(c1)CCCC(C1CCC(F)(F)CC1)=C2c1ccc(CC2CN(CCCF)C2)cc1 [Example 4, 8-(4,4-Difluorocyclohexyl)-9-(4-((1-(3-fluoropropyl)azetidin-3-yl)methyl)phenyl)-6,7-dihydro-5H-benzo[7]Annulene-3-carboxylic Acid Hydrochloride] | 85% | 0.9 nM |  |
| Cl.O=C(O)c1ccc2c(c1)CCCC(c1ccc(Cl)cc1Cl)=C2c1ccc(CC2CN(CCCF)C2)cc1F [Example 47, 8-(2,4-dichlorophenyl)-9-(2-fluoro-4-((1-(3-fluoropropyl)azetidin-3-yl)methyl)phenyl)-6,7-dihydro-5H-benzo[7]annulene-3-carboxylic acid] | 93% | 0.4 nM |  |
| O=C(O)c1ccc2c(c1)CCCC(c1cccc(F)c1C(F)(F)F)=C2c1ccc(CC2CN(CCC(F)F)C2)cc1 [Example 278, 9-(4-((1-(3,3-difluoropropyl)azetidin-3-yl)methyl)phenyl)-8-(3-fluoro-2-(trifluoromethyl)phenyl)-6,7-dihydro-5H-benzo[7]annulene-3-carboxylic acid] | 84% |  | 0.2 nM |
| NC(c1ccc(C2=C(c3ccc(Cl)cc3Cl)CCCc3cc(C(=O)O)ccc32)cc1)C1CN(CCCF)C1 (single isomer, unassigned; isomer 1) [Example 243, 9-(4-(amino(1-(3-fluoropropyl)azetidin-3-yl)methyl)phenyl)-8-(2,4-dichlorophenyl)-6,7-dihydro-5H-benzo[7]annulene-3-carboxylic Acid Isomer 1] | 78% | 15.6 nM |  |

Other lines, results leading:

| % Degradation At 0.3 μM | DC50 [1] | IC50 [1] | Structure (SMILES) |
| --- | --- | --- | --- |
| 89% | 0.8 nM |  | O=C(O)c1ccc2c(c1)CCCC(c1ccc(Cl)cc1Cl)=C2c1ccc(CC2CN(CCC(F)(F)F)C2)cc1 [Example 261, 8-(2,4-dichlorophenyl)-9-(4-((1-(3,3,3-trifluoropropyl)azetidin-3-yl)methyl)phenyl)-6,7-dihydro-5H-benzo[7]annulene-3-carboxylic acid] |
| 86% | 0.4 nM |  | O=C(O)c1cc2c(cc1F)C(c1ccc(CC3CN(CCCF)C3)cc1)=C(c1ccc(Cl)cc1Cl)CCC2 [Example 206, 8-(2,4-dichlorophenyl)-2-fluoro-9-(4-((1-(3-fluoropropyl)azetidin-3-yl)methyl)phenyl)-6,7-dihydro-5H-benzo[7]annulene-3-carboxylic acid] |
| 54% | 255 nM |  | Cl.O=C(O)c1ccc2c(c1)SCCC(c1ccc(Cl)cc1Cl)=C2c1ccc(CC2CN(CCCF)C2)cc1 [Example 52, 4-(2,4-dichlorophenyl)-5-(4-((1-(3-fluoropropyl)azetidin-3-yl)methyl)phenyl)-2,3-dihydrobenzo[b]thiepine-8-carboxylic acid] |
| 86% | 0.6 nM |  | Cc1c(Cl)cccc1C1=C(c2ccc(CC3CN(CCC(F)F)C3)cc2)c2ccc(C(=O)O)cc2CCC1 [Example 293, 8-(3-chloro-2-methylphenyl)-9-(4-((1-(3,3-difluoropropyl)azetidin-3-yl)methyl)phenyl)-6,7-dihydro-5H-benzo[7]annulene-3-carboxylic acid] |
| 87% | 0.4 nM |  | O=C(O)c1ccc2c(c1)CCCC(c1cccc(Cl)c1C(F)(F)F)=C2c1ccc(CC2CN(CCC(F)(F)F)C2)cc1 [Example 259, 8-(3-chloro-2-(trifluoromethyl)phenyl)-9-(4-((1-(3,3,3-trifluoropropyl)azetidin-3-yl)methyl)phenyl)-6,7-dihydro-5H-benzo[7]annulene-3-carboxylic acid] |
| 92% | 0.3 nM |  | Cc1ccc(C2=C(c3ccc(CC4CN(CCCF)C4)cc3)c3ccc(C(=O)O)cc3CCC2)c(C)c1.Cl [Example 10, 8-(2,4-dimethylphenyl)-9-(4-((1-(3-fluoropropyl)azetidin-3-yl)methyl)phenyl)-6,7-dihydro-5H-benzo[7]annulene-3-carboxylic acid] |
| 100% | 88.7 nM |  | Cc1cc(C2=C(c3ccc(CC4CN(CCCF)C4)cc3)c3ccc(C(=O)O)cc3CCC2)cn(C)c1=O [Example 209, 8-(1,5-dimethyl-6-oxo-1,6-dihydropyridin-3-yl)-9-(4-((1-(3-fluoropropyl)azetidin-3-yl)methyl)phenyl)-6,7-dihydro-5H-benzo[7]annulene-3-carboxylic acid] |
